Reference: ChEMBL document CHEMBL3045759, “Synthesis of a New 1, 2, 4-Oxadiazol-5-one Derivative, KC10017, and Its Controlling Activity against Rice Blast Disease Caused by Magnaporthe grisea” (J Pestic Sci, 2002)
Calls of active or inactive are those of the source. The rule behind the calls is not given here.

How the values were obtained:
Botrytis cinerea = assay: Fungicidal activity against Botryotinia fuckeliana assessed as control of cucumber gray mold disease at 50 ug/ml; assay type: functional, organism-based
Pyricularia grisea [1] = assay: Fungicidal activity against Magnaporthe grisea P-2 in rice plant assessed as control of rice blast disease at 100 ug/ml measured after 14 days of treatment at 26 +/- 2 degC measured afterr 5 days; assay type: functional, organism-based
[2] = Lipophilicity, log P of the compound; assay type: physicochemical; details: octanol/water
Pyricularia grisea [3] = assay: microbe, parasite or virus in culture; assay type: functional; details: P-2
Puccinia triticina = assay: Fungicidal activity against Puccinia triticina assessed as control of wheat leaf rust disease at 50 ug/ml; assay type: functional, organism-based
Rhizoctonia solani = assay: Fungicidal activity against Rhizoctonia solani assessed as control of rice sheath blight disease at 50 ug/ml; assay type: functional, organism-based
Phytophthora infestans = assay: Fungicidal activity against Phytophthora infestans assessed as control of tomato late blight disease at 50 ug/ml; assay type: functional, organism-based
Pyricularia grisea [4] = assay: microbe, parasite or virus in culture; assay type: functional; details: P-2; remark: listed apart in the source
Pyricularia grisea [5] = assay: microbe, parasite or virus in culture; assay type: functional; details: P-2; remark: listed apart in the source
Pyricularia grisea [6] = assay: Fungicidal activity against Magnaporthe grisea P-2 in rice plant assessed as control of rice blast disease at 50 ug/ml; assay type: functional, organism-based
Blumeria hordei = assay: Fungicidal activity against Blumeria graminis f. sp. hordei assessed as control of barley powdery mildew at 50 ug/ml; assay type: functional, organism-based
Pyricularia grisea [7] = assay: Inhibition of mycelial growth of Magnaporthe grisea P-2 assessed as mycelial dry weight at 0.1 to 100 ug/ml at 25 degC; assay type: functional, organism-based
Pyricularia grisea [8] = assay: Fungicidal activity against Magnaporthe grisea P-2 in rice plant assessed as control of rice blast disease at 0.5 ug/ml at 26 +/- 2 degC measured after 5 days; assay type: functional, organism-based
Pyricularia grisea [9] = assay: microbe, parasite or virus in culture; assay type: functional; details: P-2; remark: listed apart in the source

For `Cc1cccc(NC(=O)Cn2c(COc3c(C)cc(Br)cc3C)noc2=O)c1`, the Activity (Botrytis cinerea) was “inactive”, the Activity (Pyricularia grisea [1]) was “Active” and the logP [2] was 6.01. The inhibition at 10 µg/mL (Pyricularia grisea [3]) was 0%, the Activity (Puccinia triticina) was “inactive” and the Activity (Rhizoctonia solani) was “inactive”. The Activity (Phytophthora infestans) was “inactive”, the inhibition at 1 µg/mL (Pyricularia grisea [4]) was 2.9% and the inhibition at 1 µg/mL (Pyricularia grisea [5]) was 0%. For the same compound, the Activity (Pyricularia grisea [6]) was “Active”, the Activity (Blumeria hordei) was “inactive” and the inhibition (Pyricularia grisea [7]) was “inactive”. The Activity (Pyricularia grisea [8]) was “Active” and the inhibition at 10 µg/mL (Pyricularia grisea [9]) was 0%.
`CN(CC[C@H](N)CC(=O)N[C@H]1C=C[C@H](n2ccc(N)nc2=O)O[C@@H]1C(=O)O)C(=N)N` [BLASTICIDIN_S] gave an inhibition at 1 µg/mL (Pyricularia grisea [4]) of 76.6%, an inhibition at 1 µg/mL (Pyricularia grisea [5]) of 25.2% and an inhibition at 10 µg/mL (Pyricularia grisea [9]) of 100%.
For `Cc1cccc2sc3nncn3c12` [TRICYCLAZOLE], the inhibition at 10 µg/mL (Pyricularia grisea [3]) was 0%, the inhibition at 1 µg/mL (Pyricularia grisea [4]) was 3.8% and the inhibition at 1 µg/mL (Pyricularia grisea [5]) was 0%. For the same compound, the inhibition at 10 µg/mL (Pyricularia grisea [9]) was 7.2%.
In the case of `CCOP(=O)(Sc1ccccc1)Sc1ccccc1` [EDIFENPHOS], the inhibition at 1 µg/mL (Pyricularia grisea [4]) is reported as 76.4%, the inhibition at 1 µg/mL (Pyricularia grisea [5]) is reported as 44.8% and the inhibition at 10 µg/mL (Pyricularia grisea [9]) is reported as 100%.
